This is an account of results in patent US20230141603A1, “BENZODIAZEPINE DERIVATIVES AS GABA A GAMMA1 PAM” (Hoffmann-La Roche Inc., priority 2021, published 2023).

This test deals with T1, h-GABAA α2β2γ1 (Homo sapiens, UniProt P47869+Q8N1C3).
T1 sequence (P47869 29-451): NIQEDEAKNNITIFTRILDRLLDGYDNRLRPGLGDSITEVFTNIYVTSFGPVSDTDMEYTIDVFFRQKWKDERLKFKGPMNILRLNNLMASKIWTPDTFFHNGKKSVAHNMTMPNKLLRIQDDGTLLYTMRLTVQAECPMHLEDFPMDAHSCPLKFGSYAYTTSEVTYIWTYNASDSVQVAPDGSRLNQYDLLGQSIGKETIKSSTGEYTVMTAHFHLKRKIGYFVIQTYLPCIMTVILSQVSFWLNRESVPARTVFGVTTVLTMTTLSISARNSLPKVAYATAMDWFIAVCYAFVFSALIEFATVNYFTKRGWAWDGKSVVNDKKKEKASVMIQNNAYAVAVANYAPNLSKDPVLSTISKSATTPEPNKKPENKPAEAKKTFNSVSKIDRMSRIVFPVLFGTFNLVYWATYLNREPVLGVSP
T1 sequence (P47870 25-512 partner limits assumed): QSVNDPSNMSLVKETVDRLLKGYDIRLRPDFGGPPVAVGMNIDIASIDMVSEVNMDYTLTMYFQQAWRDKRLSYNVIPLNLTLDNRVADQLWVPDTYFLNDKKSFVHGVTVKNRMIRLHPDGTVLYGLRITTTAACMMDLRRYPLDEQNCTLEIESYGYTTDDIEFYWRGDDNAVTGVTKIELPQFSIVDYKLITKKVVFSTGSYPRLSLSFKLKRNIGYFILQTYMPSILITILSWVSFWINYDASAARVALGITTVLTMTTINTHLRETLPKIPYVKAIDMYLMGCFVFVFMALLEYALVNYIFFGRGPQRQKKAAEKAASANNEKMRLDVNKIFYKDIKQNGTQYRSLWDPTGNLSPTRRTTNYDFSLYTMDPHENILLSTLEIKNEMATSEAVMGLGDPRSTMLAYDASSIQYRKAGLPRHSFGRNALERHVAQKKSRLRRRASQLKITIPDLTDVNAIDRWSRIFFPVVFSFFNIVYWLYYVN
T1 sequence (Q8N1C3 36-465): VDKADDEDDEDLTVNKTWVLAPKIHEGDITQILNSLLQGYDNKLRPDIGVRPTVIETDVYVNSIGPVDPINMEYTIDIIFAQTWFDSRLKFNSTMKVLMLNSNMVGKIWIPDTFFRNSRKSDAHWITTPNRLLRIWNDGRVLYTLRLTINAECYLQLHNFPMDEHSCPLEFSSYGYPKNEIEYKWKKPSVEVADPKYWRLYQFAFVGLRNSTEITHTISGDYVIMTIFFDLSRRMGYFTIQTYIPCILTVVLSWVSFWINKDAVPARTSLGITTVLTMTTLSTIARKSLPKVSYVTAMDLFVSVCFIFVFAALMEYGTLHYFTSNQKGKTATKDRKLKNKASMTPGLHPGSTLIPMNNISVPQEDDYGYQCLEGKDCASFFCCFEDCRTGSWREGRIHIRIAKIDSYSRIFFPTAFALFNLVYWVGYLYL
Nature of the test: Radioligand binding assay, [3H]RO7239181 competition, HEK293F membranes. Also on record: signal peptide of human GABAA α5 subunit (Met1 to Ser31), replacing the α2 signal peptide (N); expressed in transfected cells; host or cells: HEK293F cells (ThermoFisher R79007), membranes.
For `Fc1ccccc1C1=NCc2nnc(-c3cccnn3)n2-c2ccc(C(F)(F)F)c(Cl)c21` [Example 27, 7-chloro-6-(2-fluorophenyl)-1-pyridazin-3-yl-8-(trifluoromethyl)-4H-[1,2,4]triazolo[4,3-a][1,4]benzodiazepine], the inhibition constant (Ki) (in general, the dissociation constant of the complex between target and ligand, obtained from inhibition or displacement) was found to be 0.0845 µM.

For `Fc1cccnc1C1=NCc2nnc(C3CC3)n2-c2ccc(Cl)c(Cl)c21` [Example 65, 7,8-dichloro-1-cyclopropyl-6-(3-fluoro-2-pyridyl)-4H-[1,2,4]triazolo[4,3-a][1,4]benzodiazepine], the affinity, expressed as Ki, was 0.0649 µM.

For `Cc1ccc2c(c1Cl)C(c1c(F)cccc1F)=NCc1nnc(-c3ccncn3)n1-2` [Example 49, 7-chloro-6-(2,6-difluorophenyl)-8-methyl-1-pyrimidin-4-yl-4H-[1,2,4]triazolo[4,3-a][1,4]benzodiazepine], the inhibition constant (Ki) is 0.0141 µM.

`Fc1cccc(F)c1C1=NCc2nnc(C3CCOCC3)n2-c2ccc(Cl)c(Cl)c21` [Example 11, 7,8-dichloro-6-(2,6-difluorophenyl)-1-tetrahydropyran-4-yl-4H-[1,2,4]triazolo[4,3-a][1,4]benzodiazepine] yielded a Ki of 0.0491 µM.

In turn, `Cc1nnc2n1-c1ccc(Cl)c(Cl)c1C(c1ncccc1F)=NC2` [Example 71, 7,8-dichloro-6-(3-fluoro-2-pyridyl)-1-methyl-4H-[1,2,4]triazolo[4,3-a][1,4]benzodiazepine] yielded a Ki of 0.0376 µM.

In turn, `Fc1cccnc1C1=NCc2nnc(-c3cccnn3)n2-c2ccc(C(F)(F)F)c(Cl)c21` [Example 72, 7-chloro-6-(3-fluoro-2-pyridyl)-1-pyridazin-3-yl-8-(trifluoromethyl)-4H-[1,2,4]triazolo[4,3-a][1,4]benzodiazepine] registered a Ki of 0.0301 µM. This Ki and that of the compound before are within 1.5-fold of each other.

`Fc1cccc(F)c1C1=NCc2nncn2-c2ccc(Br)c(Cl)c21` [Example 7, 8-bromo-7-chloro-6-(2,6-difluorophenyl)-4H-[1,2,4]triazolo[4,3-a][1,4]benzodiazepine] came in with a Ki of 0.0085 µM.

`Cc1ccc2c(c1Cl)C(c1c(F)cccc1F)=NCc1n[nH]c(=O)n1-2` [Example 16, 7-chloro-6-(2,6-difluorophenyl)-8-methyl-2,4-dihydro-[1,2,4]triazolo[4,3-a][1,4]benzodiazepin-1-one] had an inhibition constant Ki of 0.0265 µM. This Ki is about 3.1-fold higher than that of the compound before.

`COc1ccc2c(c1Cl)C(c1c(F)cccc1F)=NCc1nnc(-c3ccncn3)n1-2` [Example 61, 7-chloro-6-(2,6-difluorophenyl)-8-methoxy-1-pyrimidin-4-yl-4H-[1,2,4]triazolo[4,3-a][1,4]benzodiazepine]: the inhibition constant (Ki) stood at 0.0776 µM. Against the preceding compound, the Ki is about 2.9-fold higher.
